The source of these data is paper PMC5654082 (Malaria Journal, 2017).

Structures can show the parent of a compound that is named as a salt.

For one data set, the target named is MATE2-K (Homo sapiens, UniProt Q86VL8). In words: Export assay in HEK293 cells co-transduced with OCT1 and MATE2-K. It is filed as cell-based. On the set-up: host or cells: HEK293, baculovirus transduction (CMV promoter), transient; co-transduced with human OCT1 in the export assay. As for the experimental part: (§1) HEK293 cells were modified to transiently express (a combination of) human OCT1, OCT2, MATE1, MATE2-K, or eYFP. Briefly, cDNA of the respective genes was cloned downstream of a CMV promoter into a baculovirus, of which passage three was used to transduce HEK293 cells. These cells were seeded in poly-D-lysine coated 24- or 96-wells plates and grown in a 37 °C incubator at 5% CO2. Growth was initiated at ~ 25% confluency using 375 or 125 μL cell and complete medium (DMEM + GlutaMAX™-I supplemented with 10% fetal bovine serum) suspension per well, respectively. After 24 h, cells were transduced with 30 µL virus (10 µL virus + 20 µL complete medium in case of 96-wells plates) or 2 × 15 µL virus for cells that required simultaneous expression of two transporters. Finally, 195 µL sodium butyrate (45 µL for 96-wells plates) was added to a final concentration of 2 mM to enhance protein expression.
MATE2-K, sequence (Q86VL8 1-566 isoform Q86VL8-3): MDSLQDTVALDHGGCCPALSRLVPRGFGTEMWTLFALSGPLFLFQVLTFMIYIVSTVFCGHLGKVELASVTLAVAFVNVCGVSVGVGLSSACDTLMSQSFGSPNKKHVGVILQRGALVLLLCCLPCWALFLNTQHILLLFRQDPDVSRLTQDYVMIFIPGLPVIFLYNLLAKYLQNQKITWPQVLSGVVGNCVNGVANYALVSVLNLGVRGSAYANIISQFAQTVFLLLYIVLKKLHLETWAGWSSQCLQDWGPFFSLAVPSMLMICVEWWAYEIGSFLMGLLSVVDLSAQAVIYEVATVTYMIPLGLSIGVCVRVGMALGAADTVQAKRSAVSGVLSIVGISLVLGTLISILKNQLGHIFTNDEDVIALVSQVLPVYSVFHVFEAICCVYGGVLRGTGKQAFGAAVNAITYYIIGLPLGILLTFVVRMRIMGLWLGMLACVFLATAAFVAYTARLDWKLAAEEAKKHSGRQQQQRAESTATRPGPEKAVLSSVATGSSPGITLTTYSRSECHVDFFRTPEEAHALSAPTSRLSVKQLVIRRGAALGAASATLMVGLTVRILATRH
Import and export of PG and cycloguanil (CG) was assessed by single and double transduced HEK293 cells. In short, HEK293 cells seeded in 24-wells plates as described, were transduced separately with eYFP, OCT1, OCT2, MATE1 or MATE2-K, or with combinations of these viruses. Following the same procedure as for the cellular import assay described above, the import of 100 µM PG and CG was measured after 5 min incubation and data was plotted as mean pmol/mg/min ± SEM. For export (following OCT1 uptake) of 1 µM PG after 1 min of transport at pH 7.4, percentage of remaining cellular PG (compared to background) was plotted as mean ± SEM in GraphPad version 5.03. Significant reduction in uptake (i.e. export by MATEs) was determined using ln transformation and a one-way repeated measures ANOVA with Dunnet’s post test.
Anti-malarial concentration in the cell lysates was quantified using an LC–MS/MS system consisting of a UPLC, a binary solvent manager, a vacuum degasser and an autosampler, coupled to a Xevo TQ-S micro triple quadrupole mass spectrometer. Liquid chromatographic separation of the samples (stored at 10 °C; injection volume of 10 µL) was performed at 40 °C using a HSS T3 analytical column (1.8 μm; 100 × 2.1 mm) coupled to a VanGuard HSS T3 pre-column (1.8 µm; 5 × 2.1 mm). […] Positive ion mode was used with selected reaction monitoring (SRM) for the quantitative analysis of AMO, ART, ATO, CQ, CG, DHA, LUM, MQ, PQ, PG, and QN. The peak area of the most abundant product ion was used for quantification.

The target of another data set is T1, human OCT1 (Homo sapiens, UniProt O15245).
T1 construct: host or cells: HEK293, baculovirus transduction (CMV promoter), transient
T1 sequence (O15245 1-554): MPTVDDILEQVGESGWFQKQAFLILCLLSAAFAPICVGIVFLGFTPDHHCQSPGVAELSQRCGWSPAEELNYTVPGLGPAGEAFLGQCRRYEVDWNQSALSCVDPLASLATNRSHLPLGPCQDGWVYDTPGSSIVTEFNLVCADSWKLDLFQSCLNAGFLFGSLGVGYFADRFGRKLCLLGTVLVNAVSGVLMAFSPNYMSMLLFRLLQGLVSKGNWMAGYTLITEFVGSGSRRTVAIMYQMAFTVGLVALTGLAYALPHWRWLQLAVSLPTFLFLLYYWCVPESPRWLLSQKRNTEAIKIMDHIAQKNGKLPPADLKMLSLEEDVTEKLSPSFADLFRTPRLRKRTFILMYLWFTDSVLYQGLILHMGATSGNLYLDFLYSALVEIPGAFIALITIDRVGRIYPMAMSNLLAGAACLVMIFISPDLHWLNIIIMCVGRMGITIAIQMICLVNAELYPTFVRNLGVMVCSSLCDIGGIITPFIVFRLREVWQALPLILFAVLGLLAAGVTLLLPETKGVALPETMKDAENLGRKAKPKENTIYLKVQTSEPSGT
Kind of data set: Inhibition of OCT1-mediated ASP uptake in transduced HEK293 cells. The following applies: 50 µM anti-malarial, 10 µM ASP, 10 min, 37 °C; relative to solvent control fixed at 100%. The format is cell-based. The protocol: as §1
AMO (10 mM), ASP (1 mM), CQ (10 mM), PQ (10 mM) and PG (10 mM) were dissolved in MilliQ water. ART (10 mM), ATO (10 mM), DHA (10 mM), LUM (10 mM), MQ (10 mM), NMQ (20 mM), PYR (10 mM), QN (10 mM) were dissolved in DMSO. All compound stocks were stored at − 20 °C. Inhibition of OCT1- or OCT2-mediated ASP uptake by anti-malarials was performed in poly-D-lysine coated 96-wells plates 2 or 3 days following HEK293 cell transduction. In short, cells were washed with 125 µL 37 °C HBSS containing 10 mM HEPES, pH 7.4. Then, a 50 µL mixture of ASP (10 µM) and anti-malarial compound (25, 50 or 100 µM) in HBSS buffer (pH 7.4) was added to each well and incubated for 10 min at 37 °C. ASP transport was stopped by washing with 125 µL ice-cold HBSS-HEPES buffer supplemented with 0.5% BSA. Following a second wash with 125 µL ice-cold HBSS-HEPES buffer, cells were lysed with 125 µL 1 M NaOH and ASP was excited at a wavelength of 485 nm and fluorescence was detected at an emission wavelength of 535 nm using the Victor X3 multimode plate reader.
For each compound, a range of seven concentrations was used to determine the concentration at which ASP uptake was inhibited half maximally (IC50). At least three independent experiments (4 for QN) were performed for each drug in triplicate as described above. Inhibition curves were plotted by nonlinear regression analyses of the data using GraphPad Prism version 5.03. […] To generate the final dose–response inhibition curve per anti-malarial, percentage of uptake was averaged for each drug concentration per experiment and the resulting mean ± SEM corresponding to three or four independent experiments were plotted.

As for `[H]/N=C(\N/C(=N/[H])Nc1ccc(Cl)cc1)NC(C)C` [Proguanil, proguanil hydrochloride], on MATE2-K (MATE2-K co-transduced with OCT1), the “Intracellular concentration, percentage of its initial value” was determined as 56%. Further, on MATE2-K (OCT1/MATE2-K versus eYFP/OCT1 cells, 1 µM, 1 min), the “Relative decrease in uptake by MATE2-K” value stood at 44%. Moreover, the “Uptake, percentage of eYFP control cells” value on MATE2-K (cells expressing OCT1 and MATE2-K, 1 µM, 1 min, pH 7.4) was found to be 470 ± 80%. In addition, the “Fraction exported by MATE2-K” value at MATE2-K (compared to eYFP/OCT1 transduced cells, 1 µM, 1 min) is “approximately 50%”. Also, the “Relative ASP uptake (OCT1-mediated)” value on human OCT1 was found to be 60 ± 7%.
